Reference: US20040171594A1, “Use of bis-acid(5-androsten-17-one-3beta-hydroxyl)diester for manufacture pharmaceuticals” (priority 2001, published 2004)
Marks after values point to notes of the source that are not given here.

How the values were obtained:
[1] = system: thymus and spleen of mice; assay: Indexes of thymus and spleen of mice injected with cyclophosphamide; type: in vivo, NIH mice; details: cyclophosphamide 60 mg/kg i.p., drug 10 mg/kg intragastric for 30 days, n=10
Description: Chose 90 healthy NIH mice, weighing (18˜22)g, equal amount of male and female. Every mouse was injected with cyclophos phamide (60 mg/kg, intraperitoneally). […] Administered specimen through intragastric intubation in terms of the dose in Table 8. Continuously administered orally specimen for 30 days, all mice fasted on the 30th day, but were supplied with water. On the 31th day, mice of every group were killed. Weighed their body, thymus and spleen, calculated index of thymus and spleen, compared the difference among each group.

[2] = system: arrhythmia of rats induced by BaCl2; assay: Arrhythmia of rats induced by BaCl2; type: in vivo, SD rats; details: BaCl2 4 mg/kg, within 60 min, n=10
Description: 50 male SD rats, weighing (236.7±13.7)g, were anaesthetized with 10% chloral hadrate 0.3 g/kg intraperitoneally, recorded ECG with intubating of external jugular vein administering drug. As soon as injected with BaCl2 4 mg/kg, rats usually emerged VP and VT quickly and developed to be the steady and typical double-aspect arrhythmia. After immediately injected with drug or 0.5% CMC-Na into vein, recorded the time of recovering and maintaining sinus rhythm within 60 min as standard, and compared the function between five groups. […] Time of maintaining sinus rhythm was longer and acted more quickly than that of Amiodarone group.

[3] = system: osteoporosis model of rats induced by Retinoic acid; assay: Osteoporosis model of rats induced by Retinoic acid; type: in vivo, SD rats; details: Retinoic acid 70 mg/kg, specimen orally 30 days (dose not given), right thighbone, n=8
Text: After continuously administering specimen for 30 days, killed rats and took right thighbone of rat.
Took same part tissue of right thighbone, routinely decalcified, enveloped with olefin, and dyed with HE. Observed with ordinary optics microscope, import all imagines into computer with A/D conversion of pickup camera, via dealing with image analysis software obtained index of guide line as follows: relative bone volume, indicating percentage that bone trabecula accounted for medullary cavity, 1.25×10×4 times; average width of bone trabecula, 1.25×10×10 times; amount of cell per area in bone trabecula, gathering same area image (640×480) of bone trabecula with image analysis software, calculating amount of bone cell in corresponding area, 1.25×10×40 times; Average length of bone cell lacuna, 1.25×10×40; Average width of bone cell lacuna, 1.25×10×40. The above five indexes of static state guide-line were all observed for ten eyeshots, calculating their average value.

[4] = system: myocardium injury model of rats induced by ISO; assay: Myocardium injury (myocardial ischemia) model of rats induced by ISO; type: in vivo, SD rats; details: drug 0.76 mg/kg, n=8; for Σ ST: rats, ISO s.c.
Description: SD rats were measured ECG by chest leads before experiment, abandoned those of abnormal or arrhythmia at T wave, ST sect. […] They were divided into four groups according to Table 4, eight rats in each group. As dose of Table 4, tested compounds or 0.5% CMC-Na solution with same volume were administered through duodenum for 30 minutes, rats were anaesthetized with aether. After ECG was recorded, Isoproterenol (ISO) was administered by subcutaneous injection from the back, recorded ECG again after 30 minutes. After specimen was intragastricly granted for 24 hours and 48 hours, every group was administered simples again and recorded ECG again in terms of the methods stated above. After 72 hours, bleeding from the ophthalmic venous plexus and separated blood serum through centrifugation. Killed the rats, scissor the tip of the heart to prepare 10% myocardial tissue homogenate with 4° C. physiological saline as standby.
Measured each rat's value of ST before first administering ISO. And after first, second and third subcutaneous injection for 30 minutes, calculated mv mean value of ΣST as guide line of myocardium injury and performed t test.
The changes of MDA LDH and CK in serum were measured with agent kits.
The changes of MDA, LDH and CK in serum and myocardial tissue homogenate were measured with agent kits.

[5] = system: acute renal failure of mice induced by endotoxin; assay: Acute renal failure model induced by endotoxin; type: in vivo, NIH mice; details: drug 10 mg/kg i.p., endotoxin 0.06 g/kg, after five hours, n=10; for GSH-Px: mice kidney homogenate; for BUN / Cr: mice serum
Description: After five hours, blood of the mice was collected by removing eyes, assayed Blood Urea Nitrogen (BUN) and Creatinine (Cr) concentration of serum. One kidney of each […] was taken out and made 100 mL/L homogenate, assayed activity of Glutathione Peroxidase (GSH-Px) enzyme.

[6] = system: cerebral ischemia-reperfusion injury of mice; assay: Memory step-through test after cerebral ischemia-reperfusion injury; type: in vivo, NIH mice; details: 4.5 mg/kg intragastric once a day for 10 days, n=10
Description: After weighed, NIH mice were anaesthetized with Penbotarbital 60 mg/kg, then performed operation. Fixed at supine position, the skin in the middle of the deck was dissected about 7 mm. Separated common carotid artery of two sides of neck, surrounded with the thread of No “0”. Common carotid artery of two sides was chipped with artery clip for 2 minutes to induce cerebral ischemia. In the end of ischemia treatment, artery clip was loosed and blood perfusion was restored, rest for five minutes, repeated twice as that. After blocking blood flow of carotid, sutured incision. Recorded trail bloodletting, bloodletting quantity was no more than 10% of total blood quantity. After operation, […] were administered with proper physiological saline through intraperitoneal injection in order to supple capacity of blood. After pseudo operation group was anaesthetized, carotid of two sides was separated but blood flow was not blocked, without being bloodletting too.
In experiment appearance of body temperature lowering and righting reflex disappearing was as positive guide-line of ischemia, discarding those without typical guide line of ischemia. In the procedure of ischemia or after operation, some of animals would be dead. […] According to the dose of Table 7, animals were administered with medicine by intragastric intubation once a day, and continue administered drug for 10 days. After 10 days, memory test was performed.

[7] = myocardial tissue homogenate of rats with ISO myocardium injury
[8] = serum of rats with ISO myocardium injury, after 72 hours

Row | Substance | Index of spleen [1] [mg/10 g body weight] | Index of thymus [1] [mg/10 g body weight] | Amount of cell per area in bone trabecula [3] | Average width of bone trabecula [3] [μm] | Relative bone volume [3] [%] | Activity of CK [4, 7] [U/L] | Activity of LDH [4, 7] [U/L] | MDA [4, 7] [nmol/g] | Σ ST ([4]; 30 min) [mv] | Σ ST ([4]; 24 h) [mv] | Σ ST ([4]; 48 h) [mv] | Σ ST ([4]; 72 h) [mv] | Activity of CK [4, 8] [U/L] | Activity of LDH [4, 8] [U/L] | MDA [4, 8] [nmol/mL] | GSH-Px [5] [nU · L^−1] | BUN [5] | Cr [5] | Latency of dark cabin, Memory [6] [s] | Latency of dark cabin, Study [6] [s] | other results
1 | pentanediol-disulphonic acid-(5-androsten-17-one-3β-ol)-diester [Compound J] | 61.29 ± 15.34 | 17.24 ± 3.34 | 29.84 ± 3.16 | 67.84 ± 4.68 | 37.55 ± 3.26 | 268.28 ± 42.59 | 197.45 ± 26.88 | 95.67 ± 15.67 | 0.54 ± 0.12 | 0.52 ± 0.07 | 0.56 ± 0.07 | 0.54 ± 0.08 | 239.40 ± 16.15 | 257.05 ± 31.30 | 26.47 ± 3.25 | 32.2 ± 13.1 | 337.6 ± 32.8*** 10 mg · L^−1 | 37.60 ± 8.44*** 10 mg · L^−1 | 52.0 ± 17.2 | 30.8 ± 15.0 | time of maintaining sinus rhythm ([2]; drug 1.5 mg/kg into vein): 51.762 ± 6.275 min; time of storing sinus rhythm ([2]; drug 1.5 mg/kg into vein): 3.584 ± 2.471 min; time of maintaining sinus rhythm ([2]; drug 2.5 mg/kg into vein): 59.248 ± 1.527 min; time of storing sinus rhythm ([2]; drug 2.5 mg/kg into vein): 0.845 ± 1.529 min; Number of error [6]: 3.2 ± 1.6 n
2 | butanediol-disulphonic acid-(5-androsten-17-one-3β-ol)-diester [Compound I] | 69.60 ± 16.10 | 16.44 ± 3.25 | 31.84 ± 3.94 | 61.37 ± 4.71 | 29.84 ± 3.56 | 214.27 ± 40.62 | 159.82 ± 31.69 | 115.02 ± 10.34 | 0.49 ± 0.12 | 0.54 ± 0.12 | 0.50 ± 0.06 | 0.54 ± 0.08 | 242.14 ± 22.72 | 233.35 ± 18.46 | 24.64 ± 2.53 | 37.6 ± 15.1 | 344.4 ± 40.6*** 10 mg · L^−1 | 34.41 ± 9.65*** 10 mg · L^−1 | 46.5 ± 13.8 | 25.7 ± 14.8 | time of maintaining sinus rhythm ([2]; drug 0.5 mg/kg into vein): 45.478 ± 5.271 min; time of storing sinus rhythm ([2]; drug 0.5 mg/kg into vein): 6.752 ± 4.132 min; Number of error [6]: 3.1 ± 1.7 n
